Laboratory results as given in patent US10750743B2, “Pyridazinone herbicides” (E.I. DU PONT DE NEMOURS AND COMPANY, priority 2015, dated 2020).

How the values were obtained:
Assay type in all cases: in vivo
[1] = system: barnyardgrass (Echinochloa crus-galli); experiment: Test A preemergence, directed soil spray, visual injury rating; conditions: Echinochloa crus-galli, pre-emergence, 240 h, 0 is no effect, 100 is complete control, read-out: Plant response rating (0 to 100 scale), Barnyardgrass; for pest or weed control at 31 g/ha: 31 g ai/ha; for pest or weed control at 125 g/ha: 125 g ai/ha
Summary of the method: (§1)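 Injury ratings, 0 (no effect) to 100 (complete control), were scored visually versus untreated plants roughly 10 d after treatment under greenhouse conditions. Treatments used surfactant-containing solvent formulations, sprayed onto soil preemergence or onto one- to two-leaf seedlings (2-10 cm) postemergence, grown in a loam-sand mix.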

kochia (Kochia scoparia) [2] = experiment: as above; conditions: Bassia scoparia, pre-emergence, 240 h, 0 is no effect, 100 is complete control, read-out: Plant response rating (0 to 100 scale), Kochia; for pest or weed control at 31 g/ha: 31 g ai/ha; for pest or weed control at 125 g/ha: 125 g ai/ha
Summary of the method: as §1

[3] = system: pigweed (Amaranthus retroflexus); experiment: as above; conditions: Amaranthus retroflexus, pre-emergence, 240 h, 0 is no effect, 100 is complete control, read-out: Plant response rating (0 to 100 scale), Pigweed; for pest or weed control at 31 g/ha: 31 g ai/ha; for pest or weed control at 125 g/ha: 125 g ai/ha
Summary of the method: as §1

[4] = system: ragweed (common ragweed, Ambrosia elatior); experiment: as above; conditions: Ambrosia artemisiifolia, pre-emergence, 240 h, 0 is no effect, 100 is complete control, read-out: Plant response rating (0 to 100 scale), Ragweed; for pest or weed control at 31 g/ha: 31 g ai/ha; for pest or weed control at 125 g/ha: 125 g ai/ha
Summary of the method: as §1

[5] = system: ryegrass, It. (Italian ryegrass, Lolium multiflorum); experiment: as above; conditions: Lolium multiflorum, pre-emergence, 240 h, 0 is no effect, 100 is complete control, read-out: Plant response rating (0 to 100 scale), Ryegrass, It.; for pest or weed control at 31 g/ha: 31 g ai/ha; for pest or weed control at 125 g/ha: 125 g ai/ha
Summary of the method: as §1

[6] = system: barnyardgrass (Echinochloa crus-galli); experiment: Test B flooded paddy test, visual rating; conditions: Echinochloa crus-galli, 360 h; Flood, 250 g ai/ha, applied to paddy water, rated after 13 to 15 d; read-out: Barnyardgrass plant response rating (0 to 100 scale, 0 is no effect, 100 is complete control)
Summary of the method: (§2)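 Ratings use a 0-100 visual scale, where 100 is complete control, and compare treated plants with controls after 13 to 15 d of greenhouse growth. Compound went straight into paddy water kept 3 cm over the soil surface, applied to seedlings at the 2-leaf stage.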

[7] = system: ducksalad (Heteranthera limosa); experiment: Test B flooded paddy test, visual rating; conditions: Heteranthera limosa, 360 h; Flood, 250 g ai/ha, applied to paddy water, rated after 13 to 15 d; read-out: Ducksalad plant response rating (0 to 100 scale, 0 is no effect, 100 is complete control)
Summary of the method: as §2

rice (Oryza sativa) = experiment: Test B flooded paddy test, visual rating; conditions: Oryza sativa, 360 h; Flood, 250 g ai/ha, applied to paddy water, rated after 13 to 15 d; read-out: Rice plant response rating (0 to 100 scale, 0 is no effect, 100 is complete control)
Summary of the method: as §2

[8] = system: sedge, umbrella (small-flower umbrella sedge, Cyperus difformis); experiment: Test B flooded paddy test, visual rating; conditions: Cyperus difformis, 360 h; Flood, 250 g ai/ha, applied to paddy water, rated after 13 to 15 d; read-out: Sedge, Umbrella plant response rating (0 to 100 scale, 0 is no effect, 100 is complete control)
Summary of the method: as §2

[9] = system: barnyardgrass (Echinochloa crus-galli); experiment: Test A postemergence application, visual injury rating; conditions: Echinochloa crus-galli, post-emergence, 240 h, 0 to 100 scale, 0 no effect, 100 complete control, read-out: Barnyardgrass plant response rating; for pest or weed control at 31 g/ha: 31 g ai/ha; for pest or weed control at 125 g/ha: 125 g ai/ha
Summary of the method: as §1

[10] = system: blackgrass (Alopecurus myosuroides); experiment: as above; conditions: Alopecurus myosuroides, post-emergence, 240 h, 0 to 100 scale, 0 no effect, 100 complete control, read-out: Blackgrass plant response rating; for pest or weed control at 31 g/ha: 31 g ai/ha; for pest or weed control at 125 g/ha: 125 g ai/ha
Summary of the method: as §1

corn (Zea mays) = experiment: as above; conditions: for Plant response rating (0 to 100 scale), Corn: 31 g ai/ha, 0 is no effect, 100 is complete control; for plant injury at 125 g/ha: Zea mays, post-emergence, 240 h, 125 g ai/ha, 0 to 100 scale, 0 no effect, 100 complete control, read-out: Corn plant response rating
Summary of the method: as §1

[11] = system: foxtail, giant (giant foxtail, Setaria faberii); experiment: as above; conditions: for Plant response rating (0 to 100 scale), Foxtail, Giant: 31 g ai/ha, 0 is no effect, 100 is complete control; for pest or weed control at 125 g/ha: Setaria faberi, post-emergence, 240 h, 125 g ai/ha, 0 to 100 scale, 0 no effect, 100 complete control, read-out: Foxtail, Giant plant response rating
Summary of the method: as §1

[12] = system: galium (catchweed bedstraw, Galium aparine); experiment: as above; conditions: for Plant response rating (0 to 100 scale), Galium: 31 g ai/ha, 0 is no effect, 100 is complete control; for pest or weed control at 125 g/ha: Galium, post-emergence, 240 h, 125 g ai/ha, 0 to 100 scale, 0 no effect, 100 complete control, read-out: Galium plant response rating
Summary of the method: as §1

kochia (Kochia scoparia) [13] = experiment: as above; conditions: for Plant response rating (0 to 100 scale), Kochia: 31 g ai/ha, 0 is no effect, 100 is complete control; for pest or weed control at 125 g/ha: Bassia scoparia, post-emergence, 240 h, 125 g ai/ha, 0 to 100 scale, 0 no effect, 100 complete control, read-out: Kochia plant response rating
Summary of the method: as §1

[14] = system: pigweed (Amaranthus retroflexus); experiment: as above; conditions: for Plant response rating (0 to 100 scale), Pigweed: 31 g ai/ha, 0 is no effect, 100 is complete control; for pest or weed control at 125 g/ha: Amaranthus retroflexus, post-emergence, 240 h, 125 g ai/ha, 0 to 100 scale, 0 no effect, 100 complete control, read-out: Pigweed plant response rating
Summary of the method: as §1

[15] = system: ragweed (common ragweed, Ambrosia elatior); experiment: as above; conditions: for Plant response rating (0 to 100 scale), Ragweed: 31 g ai/ha, 0 is no effect, 100 is complete control; for pest or weed control at 125 g/ha: Ambrosia artemisiifolia, post-emergence, 240 h, 125 g ai/ha, 0 to 100 scale, 0 no effect, 100 complete control, read-out: Ragweed plant response rating
Summary of the method: as §1

[16] = system: ryegrass, It. (Italian ryegrass, Lolium multiflorum); experiment: as above; conditions: for Plant response rating (0 to 100 scale), Ryegrass, It.: 31 g ai/ha, 0 is no effect, 100 is complete control; for pest or weed control at 125 g/ha: Lolium multiflorum, post-emergence, 240 h, 125 g ai/ha, 0 to 100 scale, 0 no effect, 100 complete control, read-out: Ryegrass, It. plant response rating
Summary of the method: as §1

[17] = system: wheat (Triticum aestivum); experiment: as above; conditions: for Plant response rating (0 to 100 scale), Wheat: 31 g ai/ha, 0 is no effect, 100 is complete control; for plant injury at 125 g/ha: Triticum aestivum, post-emergence, 240 h, 125 g ai/ha, 0 to 100 scale, 0 no effect, 100 complete control, read-out: Wheat plant response rating
Summary of the method: as §1

| Compound | pest or weed control at 31 g/ha [1] [%] | pest or weed control at 125 g/ha [1] [%] | pest or weed control at 31 g/ha (kochia (Kochia scoparia) [2]) [%] | pest or weed control at 125 g/ha (kochia (Kochia scoparia) [2]) [%] | pest or weed control at 31 g/ha [3] [%] | pest or weed control at 125 g/ha [3] [%] | pest or weed control at 31 g/ha [4] [%] | pest or weed control at 125 g/ha [4] [%] | pest or weed control at 31 g/ha [5] [%] | pest or weed control at 125 g/ha [5] [%] | pest or weed control at 250 g/ha [6] [%] | pest or weed control at 250 g/ha [7] [%] | plant injury at 250 g/ha (rice (Oryza sativa)) [%] | pest or weed control at 250 g/ha [8] [%] | pest or weed control at 31 g/ha [9] [%] | pest or weed control at 125 g/ha [9] [%] | pest or weed control at 31 g/ha [10] [%] | pest or weed control at 125 g/ha [10] [%] | Plant response rating (0 to 100 scale), Corn (corn (Zea mays)) | plant injury at 125 g/ha (corn (Zea mays)) [%] | further results |
| --- | --- | --- | --- | --- | --- | --- | --- | --- | --- | --- | --- | --- | --- | --- | --- | --- | --- | --- | --- | --- | --- |
| Cc1nn(C)c(=O)c(-c2ccc(F)c3ccoc23)c1O [Compound 68, 4-(4-fluoro-7-benzofuranyl)-5-hydroxy-2,6-dimethyl-3(2H)-pyridazinone] | 0 | 20 | 30 | 60 | 0 | 80 | 30 | 50 | 20 | 80 | 0 | 0 | 0 | 0 | 0 | 10 | 0 | 60 | 0 | 0 | Plant response rating (0 to 100 scale), Foxtail, Giant [11]: 0; pest or weed control at 125 g/ha [11]: 20%; Plant response rating (0 to 100 scale), Galium [12]: 60; pest or weed control at 125 g/ha [12]: 90%; Plant response rating (0 to 100 scale), Kochia (kochia (Kochia scoparia) [13]): 20; pest or weed control at 125 g/ha (kochia (Kochia scoparia) [13]): 90%; Plant response rating (0 to 100 scale), Pigweed [14]: 0; pest or weed control at 125 g/ha [14]: 20%; Plant response rating (0 to 100 scale), Ragweed [15]: 0; pest or weed control at 125 g/ha [15]: 10%; Plant response rating (0 to 100 scale), Ryegrass, It. [16]: 80; pest or weed control at 125 g/ha [16]: 90%; Plant response rating (0 to 100 scale), Wheat [17]: 0; plant injury at 125 g/ha [17]: 0% |
| COc1c(C)nn(C)c(=O)c1-c1ccc(F)c2ccoc12 [Compound 69, 4-(4-fluoro-7-benzofuranyl)-5-methoxy-2,6-dimethyl-3(2H)-pyridazinone] | 0 | 0 | 0 | 0 | 0 | 0 | 0 | 0 | 0 | 0 | 0 | 0 | 0 | 0 | 0 | 0 | 0 | 0 | 0 | 0 | Plant response rating (0 to 100 scale), Foxtail, Giant [11]: 0; pest or weed control at 125 g/ha [11]: 0%; Plant response rating (0 to 100 scale), Galium [12]: 0; pest or weed control at 125 g/ha [12]: 0%; Plant response rating (0 to 100 scale), Kochia (kochia (Kochia scoparia) [13]): 0; pest or weed control at 125 g/ha (kochia (Kochia scoparia) [13]): 0%; Plant response rating (0 to 100 scale), Pigweed [14]: 0; pest or weed control at 125 g/ha [14]: 0%; Plant response rating (0 to 100 scale), Ragweed [15]: 0; pest or weed control at 125 g/ha [15]: 0%; Plant response rating (0 to 100 scale), Ryegrass, It. [16]: 0; pest or weed control at 125 g/ha [16]: 0%; Plant response rating (0 to 100 scale), Wheat [17]: 0; plant injury at 125 g/ha [17]: 0% |
